#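 Results reflect a 48-hour exposure of cells in 96-well plates to compound at five concentrations. TGI is the concentration that stops growth completely.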
# Columns and labels:
# Test in all cases: NCI-60 cell line screen, 48 h
# SF-268 CNS = tested on: SF-268 CNS
# SNB-19 CNS = tested on: SNB-19 CNS
# M14 melanoma = tested on: M14 melanoma
# MCF7 breast = tested on: MCF7 breast
# HS 578T breast = tested on: HS 578T breast
# MDA-N = tested on: MDA-N
# SK-MEL-28 melanoma = tested on: SK-MEL-28 melanoma
# SK-MEL-2 melanoma = tested on: SK-MEL-2 melanoma
# SR leukemia = tested on: SR leukemia
# HOP-62 NSCLC = tested on: HOP-62 NSCLC
# UACC-257 melanoma = tested on: UACC-257 melanoma
# BT-549 breast = tested on: BT-549 breast
# ACHN renal = tested on: ACHN renal
# UO-31 renal = tested on: UO-31 renal
# COLO 205 colon = tested on: COLO 205 colon
# MDA-MB-231 breast = tested on: MDA-MB-231 breast
# NCI-H522 lung = tested on: NCI-H522 lung
# KM12 colon = tested on: KM12 colon
# 786-0 renal = tested on: 786-0 renal
# MOLT-4 leukemia = tested on: MOLT-4 leukemia
# HCC-2998 colon = tested on: HCC-2998 colon
# NCI-H460 lung = tested on: NCI-H460 lung
# RXF 393 renal = tested on: RXF 393 renal
# PC-3 prostate = tested on: PC-3 prostate
# HCT-15 colon = tested on: HCT-15 colon
# NCI-H226 lung = tested on: NCI-H226 lung
# SNB-75 CNS = tested on: SNB-75 CNS
# OVCAR-3 ovarian = tested on: OVCAR-3 ovarian
# SW-620 colon = tested on: SW-620 colon
# MALME-3M melanoma = tested on: MALME-3M melanoma
# K-562 leukemia = tested on: K-562 leukemia
# OVCAR-8 ovarian = tested on: OVCAR-8 ovarian
# OVCAR-5 ovarian = tested on: OVCAR-5 ovarian
# HL-60(TB) leukemia = tested on: HL-60(TB) leukemia
# U251 CNS = tested on: U251 CNS
# SF-539 CNS = tested on: SF-539 CNS
# SK-MEL-5 melanoma = tested on: SK-MEL-5 melanoma
# NCI-H23 lung = tested on: NCI-H23 lung
# T-47D breast = tested on: T-47D breast
# MDA-MB-435 = tested on: MDA-MB-435
# SK-OV-3 ovarian = tested on: SK-OV-3 ovarian
# A498 renal = tested on: A498 renal
# LOX IMVI melanoma = tested on: LOX IMVI melanoma
# HOP-92 NSCLC = tested on: HOP-92 NSCLC
# EKVX NSCLC = tested on: EKVX NSCLC
# HCT-116 colon = tested on: HCT-116 colon
# RPMI-8226 leukemia = tested on: RPMI-8226 leukemia
# UACC-62 melanoma = tested on: UACC-62 melanoma
# NCI/ADR-RES ovarian = tested on: NCI/ADR-RES ovarian
# DU-145 prostate = tested on: DU-145 prostate
# SN12C renal = tested on: SN12C renal
# HT29 colon = tested on: HT29 colon
# CAKI-1 renal = tested on: CAKI-1 renal
# IGROV1 ovarian = tested on: IGROV1 ovarian
# CCRF-CEM leukemia = tested on: CCRF-CEM leukemia
# TK-10 renal = tested on: TK-10 renal
# SF-295 CNS = tested on: SF-295 CNS
# OVCAR-4 ovarian = tested on: OVCAR-4 ovarian
# A549 NSCLC = tested on: A549 NSCLC
compound,measurement,setting,value
COc1cc(C2c3cc4c(cc3OC(N3CCCCC3)C2C)OCO4)cc(OC)c1OC (stereo not drawn),TGI,SF-268 CNS,> 53.7 µM
same,TGI,SNB-19 CNS,26.2 µM
same,TGI,M14 melanoma,15 µM
same,TGI,MCF7 breast,19.4 µM
same,TGI,HS 578T breast,7.23 µM
same,TGI,MDA-N,3.28 µM
same,TGI,SK-MEL-28 melanoma,> 100 µM
same,TGI,SK-MEL-2 melanoma,14.9 µM
same,TGI,SR leukemia,> 54.2 µM
same,TGI,HOP-62 NSCLC,10.2 µM
same,TGI,UACC-257 melanoma,> 82.7 µM
same,TGI,BT-549 breast,> 100 µM
same,TGI,ACHN renal,28.7 µM
same,TGI,UO-31 renal,46.2 µM
same,TGI,COLO 205 colon,11.3 µM
same,TGI,MDA-MB-231 breast,21 µM
same,TGI,NCI-H522 lung,9.99 µM
same,TGI,KM12 colon,37.4 µM
same,TGI,786-0 renal,16.3 µM
same,TGI,MOLT-4 leukemia,67.4 µM
same,TGI,HCC-2998 colon,8.39 µM
same,TGI,NCI-H460 lung,18 µM
same,TGI,RXF 393 renal,5.49 µM
same,TGI,PC-3 prostate,> 100 µM
same,TGI,HCT-15 colon,> 100 µM
same,TGI,NCI-H226 lung,13.5 µM
same,TGI,SNB-75 CNS,19.3 µM
same,TGI,OVCAR-3 ovarian,6.66 µM
same,TGI,SW-620 colon,> 55.4 µM
same,TGI,MALME-3M melanoma,> 84.6 µM
same,TGI,K-562 leukemia,13.7 µM
same,TGI,OVCAR-8 ovarian,> 63.6 µM
same,TGI,OVCAR-5 ovarian,> 45.7 µM
same,TGI,HL-60(TB) leukemia,> 22.2 µM
same,TGI,U251 CNS,12.7 µM
same,TGI,SF-539 CNS,5.9 µM
same,TGI,SK-MEL-5 melanoma,17.6 µM
same,TGI,NCI-H23 lung,> 49.8 µM
same,TGI,T-47D breast,> 53.8 µM
same,TGI,MDA-MB-435,2.91 µM
same,TGI,SK-OV-3 ovarian,12.6 µM
same,TGI,A498 renal,12.8 µM
same,TGI,LOX IMVI melanoma,45 µM
same,TGI,HOP-92 NSCLC,48.1 µM
same,TGI,EKVX NSCLC,> 100 µM
same,TGI,HCT-116 colon,15.3 µM
same,TGI,RPMI-8226 leukemia,37.9 µM
same,TGI,UACC-62 melanoma,47 µM
same,TGI,NCI/ADR-RES ovarian,17.1 µM
same,TGI,DU-145 prostate,19.8 µM
same,TGI,SN12C renal,> 100 µM
same,TGI,HT29 colon,19.8 µM
same,TGI,CAKI-1 renal,17.5 µM
same,TGI,IGROV1 ovarian,26 µM
same,TGI,CCRF-CEM leukemia,23.2 µM
same,TGI,TK-10 renal,35.4 µM
same,TGI,SF-295 CNS,5.77 µM
same,TGI,OVCAR-4 ovarian,> 100 µM
same,TGI,A549 NSCLC,36.1 µM
CC(C)(Cl)C(Cl)CC/C(CBr)=C(\Cl)CCl (stereo not drawn),TGI,SF-268 CNS,29.1 µM
same,TGI,SNB-19 CNS,32.7 µM
same,TGI,M14 melanoma,3.61 µM
same,TGI,MCF7 breast,32.1 µM
same,TGI,HS 578T breast,25.3 µM
same,TGI,MDA-N,5.26 µM
same,TGI,SK-MEL-28 melanoma,8.84 µM
same,TGI,SK-MEL-2 melanoma,5.32 µM
same,TGI,SR leukemia,3.31 µM
same,TGI,HOP-62 NSCLC,26 µM
same,TGI,UACC-257 melanoma,14 µM
same,TGI,BT-549 breast,3.63 µM
same,TGI,ACHN renal,28.3 µM
same,TGI,UO-31 renal,17 µM
same,TGI,COLO 205 colon,11.1 µM
same,TGI,MDA-MB-231 breast,7.28 µM
same,TGI,NCI-H522 lung,1.88 µM
same,TGI,KM12 colon,19.5 µM
same,TGI,786-0 renal,6.5 µM
same,TGI,MOLT-4 leukemia,2.63 µM
same,TGI,HCC-2998 colon,27.7 µM
same,TGI,NCI-H460 lung,28 µM
same,TGI,RXF 393 renal,23 µM
same,TGI,PC-3 prostate,20 µM
same,TGI,HCT-15 colon,4.35 µM
same,TGI,NCI-H226 lung,15.3 µM
same,TGI,SNB-75 CNS,14.1 µM
same,TGI,OVCAR-3 ovarian,12.2 µM
same,TGI,SW-620 colon,4.12 µM
same,TGI,MALME-3M melanoma,20.2 µM
same,TGI,K-562 leukemia,17.1 µM
same,TGI,OVCAR-8 ovarian,12.6 µM
same,TGI,OVCAR-5 ovarian,28.3 µM
same,TGI,HL-60(TB) leukemia,4.65 µM
same,TGI,U251 CNS,16.2 µM
same,TGI,SF-539 CNS,15.5 µM
same,TGI,SK-MEL-5 melanoma,6.58 µM
same,TGI,NCI-H23 lung,14.4 µM
same,TGI,T-47D breast,3.88 µM
same,TGI,MDA-MB-435,8.56 µM
same,TGI,SK-OV-3 ovarian,17.9 µM
same,TGI,A498 renal,35.3 µM
same,TGI,LOX IMVI melanoma,1.35 µM
same,TGI,HOP-92 NSCLC,23.7 µM
same,TGI,EKVX NSCLC,31.8 µM
same,TGI,HCT-116 colon,8.74 µM
same,TGI,RPMI-8226 leukemia,4.59 µM
same,TGI,UACC-62 melanoma,3.79 µM
same,TGI,NCI/ADR-RES ovarian,34 µM
same,TGI,DU-145 prostate,26.7 µM
same,TGI,SN12C renal,9.47 µM
same,TGI,HT29 colon,14.7 µM
same,TGI,CAKI-1 renal,9.92 µM
same,TGI,IGROV1 ovarian,4.66 µM
same,TGI,CCRF-CEM leukemia,2.95 µM
same,TGI,TK-10 renal,27.7 µM
same,TGI,SF-295 CNS,30.6 µM
same,TGI,OVCAR-4 ovarian,7.45 µM
same,TGI,A549 NSCLC,34.1 µM

# — PubChem BioAssay (NCI)
